Where a SMILES comes first, the peptide text is derived from it. Bridges are numbered along the chain shown (N, C = ends). [ ]: non-standard residue; d: D form. Phe(4-NH2) = Nc1ccc(C[C@H](N)C(=O)O)cc1; 2Nal = N[C@@H](Cc1ccc2ccccc2c1)C(=O)O; Cit = NC(=O)NCCC[C@H](N)C(=O)O; Nlys = NCCCCNCC(=O)O
Legend:
[1] = in vitro; type: cell-based
Experimental: The cytotoxicity of the peptides to HELA cells (Acc57) and COS-7 cells (CRL-1651) was determined using the MTl reduction assay [see ref. 6 and 7, below]. Briefly the method was as follows: HELA cells and COS-7 cells were seeded at 7.0·10^3 and, respectively, 4.5·10^3 cells per well and grown in 96-well microtiter plates for 24 hours at 37° C. at 5% CO2. At this point, time zero (Tz) was determined by MTT reduction (see below). The supernatant of the remaining wells was discarded and fresh medium and the peptides in serial dilutions of 12.5, 25 and 50 μM were pipeted into the wells. Each peptide concentration was assayed in triplicate. Incubation of the cells was continued for 48 hours at 37° C. at 5% CO2. Wells were then washed once with PBS and subsequently 100 μl MTT reagent (0.5 mg/mL in medium RPMI1640 and, respectively, DMEM) was added to the wells. This was incubated at 37° C. for 2 hours and subsequently the medium was aspirated and 100 μl isopropanol was added to each well. The absorbance at 595 nm of the solubilized product was measured (OD595peptide). For each concentration averages were calculated from triplicates. The percentage of growth was calculated as follows: (OD595peptide-OD595Tz-OD595Empty well)/(OD595Tz-OD595Empty well)×100% and was plotted for each peptide concentration.
The LC 50 values (Lethal Concentration, defined as the concentration that kills 50% of the cells) were determined for each peptide by using the trend line function of EXCEL (Microsoft Office 2000) for the concentrations (50, 25, 12.5 and 0 μM), the corresponding growth percentages and the value −50, (=TREND(C50:C0,%50:%0,−50))
(§1) All fine chemicals came from Merck (D)armstadt, Germany).

[2] = tested on: human red blood cells (hRBC); type: cell-based; conditions: red cells of human, 1 h
Experimental: The peptides were tested for their hemolytic activity against human red blood cells (hRBC). Fresh hRBC were washed three times with phosphate buffered saline (PBS) by centrifugation for 10 min at 2000×g. Peptides at a concentration of 100 μM were incubated with 20% v/v hRBC for 1 hour at 37-C. The final erythrocyte concentration was approximately 0.9×10^9 cells per mL. A value of 0% resp. 100% cell lysis was determined by incubation of the hRBC in the presence of PBS alone and respectively 0.1% Triton X-100 in H2O. The samples were centrifuged and the supernatant was 20-fold diluted in PBS buffer and the optical density (OD) of the sample at […] was measured. The 100% lyses value (OD540H2O) gave an OD540 of approximately 1.3-1.8. Percent hemolysis was calculated as follows: (OD540peptide/OD540H2O)×100%.

[3] = target: CCRF-CEM cells (Homo sapiens, UniProt P61073); conditions: read-out: IC50 (μM) Cell migration assay; CCRF-CEM cells migrating to 1 nM SDF-1, 4 hours
Experimental: BELA cells and CCRF-CEM cells were maintained in RPMI1640 plus 5% FBS, Pen/Strept and 2 mM L-Glutamine. […] All cell lines were grown at 37° C. at 5% CO2. Cell media, media supplements, PBS-buffer, HEPES, Pen/Strept., L-Glutamine and sera were purchased from Gibco (Pailsey, UK). All fine chemicals came from Merck (D)armstadt, Germany).
Chemotactic Assay (Cell Migration Assay)
The chemotactic response of CCRF-CEM cells to a gradient of stromal cell-derived factor 1 a (SDF-1) was measured using disposable assay plates from Neuroprobe (5 μ pore size) (Gaithersburg, Md.), according to the manufacturer's directions and references therein [especially ref. 8, below]. Briefly, one 175 cm^2 flask was washed once with Dubecco's phosphate buffered saline (DPBS), and trypsinized for 10 minutes or until cells had lifted. The trypsin was neutralized by the addition of fresh medium containing serum and the cells were pelleted, washed once in DPBS, and resuspended at 1-0.5×10^7 cells/ml in RPM!+0.5% bovine serum albumin (BSA). 451 μl of cell suspension were mixed with 5μ of 10-fold concentrated PEM peptide diluted in the same assay medium. 35 μl of this mixture were applied to the top of the assay filter. The cells were allowed to migrate (at 37°) into the bottom chamber of the assay plate containing 1 nM SDF-1. After 4 hours, the filter was removed and MTT was added to the migrated cells to a final concentration of 0.5 mg/ml, and incubated for a further 4 hours. After labeling with MTT, all medium was removed and 100 μl of isopropanol+10 mM HCl were added to the cells. The optical absorbance at 595 nm (ABS595) was read using a Tecan Genios plate reader with Magellan software. The number of cells migrated was determined by comparing ABS595 values against a standard curve generated with a known number of cells in the assay plate and were plotted against SDF-1 concentration to obtain a sigmoidal curve and to determine the IC50 values. The values for IC50 were determined using the Trendline function in Microsoft Excel by fitting a logarithmic curve to the averaged datapoints.

[4] = tested on: 'CCR5' cells / Hut/4-3 cells co-cultivation; assay: FIGS-Assay (co-cultivated cell cultures, beta-galactosidase/ONPG read-out); type: cell-based; conditions: at 200 nM; 48 hours of co-cultivation
Experimental: The assay was performed according to ref. 5, below. Stock dilutions of the peptides (10 mM) were prepared by dissolving in 10 mM Tris-HCl at room temperature. Stock solutions were kept at +4° C., light protected. Working dilutions were prepared extemporaneously by serial dilution in Phosphate Buffered Saline (PBS) and added in a final volume of 10 μL directly to the cell cultures. After 48 hours of co-cultivation the cultures were rinsed with PBS and then exposed to glutaraldehyde/formaldehyde (0.2%/2%) in PBS for five minutes. For photometric quantification the fixed cultures were subsequently incubated with ortho-nitro-phenyl-galactopyranoside (ONPG) as a O-galactosidase substrate, which was enzymatically converted into the chromophore ortho-nitrophenol (ONP). The read out is directly obtained by measuring optical density of wells at 405 nm in an IEMS 96 well-plate reader.
as §1

[5] = target: T1, CXCR4 (Homo sapiens, UniProt P61073); assay: Ca2+ assay: CXCR4 antagonizing activity of the peptides; type: cell-based; conditions: CXCR4 transfected pre-B cells, Fura-2 fluorescence, 37° C.
T1 construct: expressed in transfected cells
Experimental: 2.2. Ca^2+− assay: CXCR4Antagonizing Activity of the Peptides
3-4 Mio CXCR4 transfected pre-B cells [see references 1, 2 and 3, below] per measurement were resuspended in 200 μl MSB (20 mM 4-(2-Hyddroxyethyl)-piperazin-1-ethansulfonic acid (HEPES), 136 mM NaCl, 4.8 mM KCl and 1 mM CaCl2) containing 5 mM D-Glucose and were loaded with 0.75 μl of 1 mM Fura-2-acetoxymethylester for 17 minutes at 37° C. The cells were washed free from Fura-2-AM with a platelet centrifuge and resuspended in 800 R1 MSB containing 5 mM D-Glucose. The peptides to be administered were diluted to a 100 fold end concentration in MSB/0.2% PPL, and 8 pl were injected. [Ca^2+ ]i-dependent fluorescence change in response to single or sequential stimulation with the peptide was recorded with a fluorimeter at an excitation wavelength of 340 nm and an end emission wavelength of 510 nm [see ref. 4, below]. Measurements were done under continuous stirring at 37° C. The signal intension was calibrated with 3 mM4 CaCl2/1 nM lonomycin (maximal fura-2-acetoxymethylester saturation) and […] MnCl2 (minimal Fura-2-acetoxymethylester saturation) and [Ca^2+]i-changes are presented in % fura-2-acetoxymethylester saturation.
MSB: 20 nmM HEPES, 136 mM NaCl, 4.8 mM KCl, 1 mM CaCl2.2H2O, pH 7.4; Osmolarity: 310 mOsm adjusted with NaOH or HCl, adjusted with dH2O or PBS.
MSB plus: 5 mM D-glucose in MSB (50 mg/50 mL).
Fura 2-acetoxymethylester: 1 mM stock solution in dimethylsulfoxide.

Sequence of CCRF-CEM cells (P61073 whole entry): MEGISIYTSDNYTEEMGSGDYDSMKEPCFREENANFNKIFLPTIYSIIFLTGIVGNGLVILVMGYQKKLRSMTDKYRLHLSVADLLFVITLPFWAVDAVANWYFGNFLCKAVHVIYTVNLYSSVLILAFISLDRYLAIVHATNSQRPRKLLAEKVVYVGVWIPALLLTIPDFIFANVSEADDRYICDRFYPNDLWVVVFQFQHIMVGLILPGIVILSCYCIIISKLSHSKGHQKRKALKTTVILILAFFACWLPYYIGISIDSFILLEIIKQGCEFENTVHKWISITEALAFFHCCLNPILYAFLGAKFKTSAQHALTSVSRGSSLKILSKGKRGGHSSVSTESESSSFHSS
T1 sequence (P61073 whole entry): as above

Structure (SMILES) | CC50 [1] [µM] | Hemolysis at 100 μM [2] [%] | IC50 [3] [µM] | CC50 at 48 h [1] [µM] | FIGS % inhibition at 200 nM [4] [%] | IC50 [5] [nM]
N=C(N)NCCC[C@H](NC(=O)[C@@H]1CSSC[C@H](NC(=O)[C@H](Cc2ccc3ccccc3c2)NC(=O)[C@H](CCCNC(=N)N)NC(=O)[C@@H](N)CCCNC(=N)N)C(=O)N[C@@H](Cc2ccc(O)cc2)C(=O)N[C@@H](CCCNC(N)=O)C(=O)N[C@@H](CCCCN)C(=O)N2CCC[C@@H]2C(=O)N2CCC[C@H]2C(=O)N[C@@H](Cc2ccc(O)cc2)C(=O)N[C@@H](CCCNC(=N)N)C(=O)N[C@@H](CCCNC(N)=O)C(=O)N1)C(N)=O [Example 7] (H-RR[2Nal]CY[Cit]K[dP]PYR[Cit]CR-NH2; disulfide 4-13; N-terminus assumed) | 56 | 0.3 | 0.55 |  |  | 
CC(=O)N[C@@H](CCCNC(=N)N)C(=O)N[C@@H](CCCNC(=N)N)C(=O)N[C@@H](Cc1ccc2ccccc2c1)C(=O)N[C@H]1CSSC[C@@H](C(=O)N[C@@H](CCCNC(=N)N)C(N)=O)NC(=O)[C@H](CCCNC(N)=O)NC(=O)[C@H](CCCNC(=N)N)NC(=O)[C@H](Cc2ccc(O)cc2)NC(=O)[C@@H]2CCCN2C(=O)[C@H]2CCCN2C(=O)[C@H](CCCCN)NC(=O)[C@H](CCCNC(N)=O)NC(=O)[C@H](Cc2ccc(O)cc2)NC1=O [Example 8] (Ac-RR[2Nal]CY[Cit]K[dP]PYR[Cit]CR-NH2; disulfide 4-13) |  | 0.1 | 5 | 226 | 90.6 | 13.9
N=C(N)NCCC[C@@H](N)C(=O)N[C@@H](CCCNC(=N)N)C(=O)N[C@@H](Cc1ccc2ccccc2c1)C(=O)N[C@H]1CSSC[C@@H](C(=O)N[C@@H](CCCNC(=N)N)C(N)=O)NC(=O)[C@H](CCCNC(N)=O)NC(=O)[C@H](CCCNC(=N)N)NC(=O)[C@H](Cc2ccc(O)cc2)NC(=O)[C@@H]2CCCN2C(=O)[C@H]2CCCN2C(=O)[C@H](CCCCN)NC(=O)[C@H](CCCNC(N)=O)NC(=O)[C@H](Cc2ccc(O)cc2)NC1=O [Example 10] (H-[dR]R[2Nal]CY[Cit]K[dP]PYR[Cit]CR-NH2; disulfide 4-13) |  | 0.6 | 0.55 | 118 | 82.0 | 21.5
N=C(N)NCCC[C@H](NC(=O)[C@@H]1CSSC[C@H](NC(=O)[C@H](Cc2ccc(N)cc2)NC(=O)[C@H](CCCNC(=N)N)NC(=O)[C@@H](N)CCCNC(=N)N)C(=O)N[C@@H](Cc2ccc(O)cc2)C(=O)N[C@@H](CCCNC(N)=O)C(=O)N[C@@H](CCCCN)C(=O)N2CCC[C@@H]2C(=O)N2CCC[C@H]2C(=O)N[C@@H](Cc2ccc(O)cc2)C(=O)N[C@@H](CCCNC(=N)N)C(=O)N[C@@H](CCCNC(N)=O)C(=O)N1)C(N)=O [Example 12] (H-RR[Phe(4-NH2)]CY[Cit]K[dP]PYR[Cit]CR-NH2; disulfide 4-13) |  | 0.1 | 5 | 226 | 71.3 | 13.9
N=C(N)NCCC[C@H](NC(=O)[C@@H]1CSSC[C@H](NC(=O)[C@H](Cc2ccc3ccccc3c2)NC(=O)[C@H](CCCNC(=N)N)NC(=O)CNCCCCN)C(=O)N[C@@H](Cc2ccc(O)cc2)C(=O)N[C@@H](CCCNC(N)=O)C(=O)N[C@@H](CCCCN)C(=O)N2CCC[C@@H]2C(=O)N2CCC[C@H]2C(=O)N[C@@H](Cc2ccc(O)cc2)C(=O)N[C@@H](CCCNC(=N)N)C(=O)N[C@@H](CCCNC(N)=O)C(=O)N1)C(N)=O [Example 16] (H-[Nlys]R[2Nal]CY[Cit]K[dP]PYR[Cit]CR-NH2; disulfide 4-13) |  |  | 1.04 |  |  | 
